Assays:
[1] = test system: uveitis; test: Uveitogenicity after immunization with the peptides; type: in vivo; settings: after immunization of objects with the peptides
Description: Of these peptides B27PD and PDSAg are uveitogenic, i.e., after immunization of objects with the peptides they develop uveitis.

[2] = test system: S-antigen-induced uveitis; test: S-antigen-induced uveitis after oral administration of antigens (oral tolerance); type: in vivo, Lewis rats; settings: induction with S-antigen; for clinical symptoms reduced to: oral administration, compared to group fed control protein (ovalbumin), peptides 200 μg, proteins 1 mg, three doses every other day; for uveitis reduced by (histological evaluation): oral feeding, compared to ovalbumin fed control groups
Description: (§1) Due to animal protection laws, the experiments were terminated three to four days after the last animals in the positive control groups diseased.
(§2) The histological evaluation consists of a grading of inflammatory signs in the tissue and destruction of the retina, the clinical grading refers to inflammatory signs of the conjunctiva and the anterior segment of the eye, which can be observed readily and are not necessarily correlated with the visual acuity.

[3] = test system: IRBP induced uveitis; test: IRBP-induced uveitis after oral administration of antigens (oral tolerance); type: in vivo, Lewis rats; settings: induction with IRBP, oral feeding; for clinical symptoms / clinical score for uveitis reduced to: compared to maximal disease in PBS-fed group
Description: as §1, §2

Substance | uveitogenic properties [1] | clinical symptoms reduced to [2] | uveitis reduced by (histological evaluation) [2] | clinical symptoms / clinical score for uveitis reduced to [3] | therapeutic properties [3]
A-L-N-E-D-L-R-S-W-T-A-A-D-T (ALNEDLRSWTAADT) [B7PD, an irrelevant control peptide] | does not have any uveitogenic properties |  |  |  | 
A-L-N-E-D-L-S-S-W-T-A-A-D-T (ALNEDLSSWTAADT) [B27PD, 14 mer peptide of the invention] | uveitogenic | 16% | 57% | 75% | 
F-L-G-E-L-T-S-S-E-V-A-T-E-V (FLGELTSSEVATEV) [PDSAg] | uveitogenic | 9% | 14% |  | no therapeutic properties
IRBP: interphotoreceptor-retinoid-binding protein, retinal protein |  |  |  | 25% | 

Source: patent publication US6790447B1, “Peptides for treatment of autoimmune diseases” (priority 1994, dated 2004)
